Key:
recombinant ADAM10 [1] = biological target: T1, recombinant ADAM10 (Homo sapiens, UniProt O14672); test: Kinetic cleavage of fluorogenic TNF-α peptide ES003 by recombinant ADAM10; format: biochemical; settings: 2 μM compound
T1 construct: purchased R&D systems, Inc
T1 sequence (O14672 214-748): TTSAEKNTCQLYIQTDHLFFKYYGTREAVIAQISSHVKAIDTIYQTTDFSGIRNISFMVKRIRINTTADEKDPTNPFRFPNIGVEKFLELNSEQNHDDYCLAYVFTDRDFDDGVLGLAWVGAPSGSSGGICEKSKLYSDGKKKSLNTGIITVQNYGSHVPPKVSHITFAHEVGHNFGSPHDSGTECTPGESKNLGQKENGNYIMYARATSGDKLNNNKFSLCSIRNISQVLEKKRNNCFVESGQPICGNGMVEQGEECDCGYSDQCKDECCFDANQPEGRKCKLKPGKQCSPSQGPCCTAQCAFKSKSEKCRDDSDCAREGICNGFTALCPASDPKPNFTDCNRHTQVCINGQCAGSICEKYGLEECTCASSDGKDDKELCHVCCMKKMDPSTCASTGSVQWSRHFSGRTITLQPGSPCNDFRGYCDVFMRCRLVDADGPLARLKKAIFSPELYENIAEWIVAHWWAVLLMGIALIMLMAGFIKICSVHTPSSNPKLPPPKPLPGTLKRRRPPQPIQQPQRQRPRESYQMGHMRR
Source text: (§1) A fluorescence based enzymatic assay was used to measure the cleavage of fluorogenic TNF-α and L-selectin (CD62L) peptides by either recombinant ADAMs or PBMC from healthy donors. The fluorogenic substrate, synthesized by Biomatik^3, was a Dabcyl (4-(4-dimethylaminophenylazo)benzoyl)- and Edans (5-[(2-aminoethyl)amino]naphthalene-1-sulfonic acid)- conjugated 12 amino acid peptide: Dabcyl-[…]-Edans that corresponds to the extracellular membrane proximal region of CD62L. […] The cleavage was measured in a kinetic assay every 3 min for 4 h in black 96-well plates using a Synergy_h1 fluorescent plate reader (BioTek) with 340 nm excitation and 490 nm emission wavelengths. […] PBMC were stimulated with anti-CD3 antibody for 2–4 days as described above.
(§2) 96-well plate with data recorded every 3 minutes for 4 hours using a Synergy_h1 fluorescent plate reader. Each enzymatic reaction contained 50 -200 ng
(§3) Figure 2B and 2C bar diagrams are generated using the
(§4) data points at 4 hour time point of the enzymatic cleavages.

[2] = biological target: T2, recombinant HIV-1 protease (Human immunodeficiency virus type 1 group M subtype B, UniProt P04585); test: HIV-1 protease fluorogenic substrate cleavage; format: biochemical; settings: 100nM saquinavir or nelfinavir; MMP inhibitors up to 10uM
T2 construct: recombinant HIV-1 protease; purchased Sigma-Aldrich SRP2151
Procedure: HIV-1 protease enzymatic activity was assayed in black 96-well plates at room temperature using a Synergy_h1 fluorescent plate reader with 340 nm excitation and 490 nm emission wavelengths (BioTek). Each enzymatic reaction consisted of a mixture of 100 ng of recombinant HIV-1 protease (Sigma-Aldrich catalog SRP2151), 5 μM concentration of a fluorogenic substrate Arg-Glu(EDANS)-[…]DABCYL)-Arg (Sigma-aldrich catalog H6660), and various concentrations of inhibitor compounds in 100 μL of assay buffer (0.15 M sodium chloride, 1.0 mM EDTA, 1.0 mM DTT, 0.1 M sodium acetate, pH 5.0). The fluorescence of the cleavage reaction was continuously read at every 30 s for a total of 40 min.

recombinant ADAM17 = biological target: T3, recombinant ADAM17 (Homo sapiens, UniProt P78536); test: Kinetic cleavage of fluorogenic TNF-α peptide ES003 by recombinant ADAM17; format: biochemical; settings: 2 μM compound
T3 construct: purchased R&D systems, Inc
Source text: as §1, §2, §3, §4

CD62L shedding [3] = test: Soluble CD62L ELISA, anti-CD3/PHA stimulated PBMC or CD4 T cells; format: cell-based, human
Procedure: PBMC from de-identified healthy donors were obtained with informed consent from the Department of Transfusion Medicine, National Institutes of Health under Biological reagent Registry RD-14-IX-12 approved by NIH biological safety board. […] IL-2 was added at a final concentration of 20 U/mL. CD3 antibody okt3 was used at ~0.2 μg/mL final concentration. […] Supernatants were collected and assessed using either the CD62L or TNF-α Duo Set ELISA kit according to manufacturer’s instructions (R&D Systems, Inc.). The viability of cells treated with compounds was assessed by acridine orange / propidiom iodide (AO/PI Logosbio catalog F23001) staining using Luna-FL cell counter following the manufacture’s instruction.^2

recombinant ADAM10 [4] = biological target: T1, recombinant ADAM10; test: Cleavage of fluorogenic CD62L peptide by recombinant ADAM10; format: biochemical; settings: 2 μM compound
Source text: A fluorescence based enzymatic assay was used to measure the cleavage of fluorogenic TNF-α and L-selectin (CD62L) peptides by either recombinant ADAMs or PBMC from healthy donors. The fluorogenic substrate, synthesized by Biomatik^3, was a Dabcyl (4-(4-dimethylaminophenylazo)benzoyl)- and Edans (5-[(2-aminoethyl)amino]naphthalene-1-sulfonic acid)- conjugated 12 amino acid peptide: Dabcyl-[…]-Edans that corresponds to the extracellular membrane proximal region of CD62L. The fluorescence of the Edans group is quenched by the Dabcyl group in the intact substrate and the cleavage of the CD62L substrate peptide results in a fluorescence emission at 490 nm. The cleavage of fluorogenic TNF-α peptide (ES003, R &D systems, Inc) was detected at emission of 405 nm. The cleavage was measured in a kinetic assay every 3 min for 4 h in black 96-well plates using a Synergy_h1 fluorescent plate reader (BioTek) with 340 nm excitation and 490 nm emission wavelengths. For cleavage using recombinant ADAMs, each enzymatic reaction contained 50–200 ng of recombinant ADAM17 or 10 (R&D systems, Inc) mixed with 5–10 μM fluorogenic TNFα peptide ES003 (R&D systems, Inc) or CD62L peptide with or without indicated inhibitors in 100 μL assay buffer of 25 mM Tris at pH 9.0, 2.5 μM ZnCl2, and 0.005% Brij-35 (w/v). For cell-based cleavage of the fluorescent CD62L-peptide substrate, 300,000 PBMC at 2×10^6/ml density were mixed with 10 μM fluorescent CD62L-peptide and various inhibitors in a black 96-well plate in 150 μL culture media (RPMI 1640, 10% FBS, 1% penicillin streptomycin). PBMC were stimulated with anti-CD3 antibody for 2–4 days as described above.
Supplemental Figure 3. Inhibition of ADAM10 enzymatic activity by 14mb. A) chemical structure of 3-Cl-phenylpyrrolidine tartrate diamide analogs 14m and 15. B)Inhibition of recombinant ADAM10 cleavage of a fluorogenic CD62L peptide substrate in the presence of titrating concentrations of 14mb. The concentration-dependent enzymatic activities are fitted with non-linear regression of normalized inhibition response model. C). Inhibition of ADAM10 enzymatic cleavage of fluorogenic CD62L peptide by various […]

HIV-1BAL = HIV-1BAL infection of CD8-depleted PBMC, FACS (intracellular p24, CD4, CD62L); format: cell-based
Source text: The use of healthy human peripheral blood mononuclear cells (PBMC) is approved by the Department of Transfusion Medicine at the Clinical Center of National Institutes of Health. The use of PBMC from HIV-1 infected individuals for the study was approved under protocol #02-I-0202 by the Institutional Review Board (IRB) of National Institutes of Health with written informed consent from all donors. Peripheral blood mononuclear cells (PBMCs) from anonymous healthy donors were isolated by Ficoll-Paque gradient, and cultured in RPMI 1640 supplemented with 10% FBS, 1%Penicillin/streptomycin, 1% HEPES buffer and 20 U/mL IL-2 (culture media); and stimulated with 0.2 μg/mL anti-CD3 antibody (okt3) for 2 days. CD8^+ T cells were depleted prior to infection using the Stemcell CD8 positive selection kit according to manufacturer’s instructions. CD8-depleted PBMCs were plated at 2×10^6 cells/ml in 48-well plates in 1 mL culture media with various inhibitors for 60 min prior to the addition of ~80 TCID50 HIV-1BAL or HIV-1LAI. Inhibitors were replenished during media change every 3 days. The infections were proceeded with or without inhibitors for 6 days or otherwise specified number of days and then analyzed by FACS staining using fluorescent labeled CD4-BV510, CD62L-APC and CD3-PEC7 antibodies (BD Biosciences). Cells were then washed and permeabilized with CytoFix/CytoPerm (BD Biosciences) solution before intracellular staining for HIV p24 antigen using FITC conjugated anti-p24 antibody clone KC57 (Beckman Coulter, catalog 6604665). All assays were performed with cell viabilities >80%. Replication competent HIV-1 viruses were obtained from the NIH AIDS Reagent Program^4, and expanded by infecting activated CD8-depleted PBMCs, and TCID50 was determined by p24 ELISA.

PBMC = PBMC viability (AO/PI staining); format: cell-based, human; settings: for PBMC viability at 24hr post treatment: 10-500 μM of MMP inhibitors for 24hours
Procedure: PBMC from de-identified healthy donors were obtained with informed consent from the Department of Transfusion Medicine, National Institutes of Health under Biological reagent Registry RD-14-IX-12 approved by NIH biological safety board. CD8-depleted PBMCs, either stimulated or non-stimulated with 10 μg/mL phytohaemagglutinin (PHA) or anti-CD3 antibody (with or without conjugated beads), were plated at 2×10^6 cells/ml in 48 well plates in RPMI 1640 + 10%FBS (R10) to a final volume of 1 mL in each well. IL-2 was added at a final concentration of 20 U/mL. CD3 antibody okt3 was used at ~0.2 μg/mL final concentration. Compounds were prepared in appropriate solvents according to the manufacturer’s instructions, diluted to working concentrations using RPMI 1640 + 10%FBS (R10), and added to the cell cultures for 6–24 h for CD62L shedding, and 48 h for TNF-α release. Supernatants were collected and assessed using either the CD62L or TNF-α Duo Set ELISA kit according to manufacturer’s instructions (R&D Systems, Inc.). The viability of cells treated with compounds was assessed by acridine orange / propidiom iodide (AO/PI Logosbio catalog F23001) staining using Luna-FL cell counter following the manufacture’s instruction.^2

CD62L shedding [5] = test: Soluble CD62L ELISA, unstimulated PBMC; format: cell-based, human; settings: 10 μM compound, non-stimulated cells, ELISA
Procedure: PBMC from de-identified healthy donors were obtained with informed consent from the Department of Transfusion Medicine, National Institutes of Health under Biological reagent Registry RD-14-IX-12 approved by NIH biological safety board. CD8-depleted PBMCs, either stimulated or non-stimulated with 10 μg/mL phytohaemagglutinin (PHA) or anti-CD3 antibody (with or without conjugated beads), were plated at 2×10^6 cells/ml in 48 well plates in RPMI 1640 + 10%FBS (R10) to a final volume of 1 mL in each well. IL-2 was added at a final concentration of 20 U/mL. CD3 antibody okt3 was used at ~0.2 μg/mL final concentration. […] Supernatants were collected and assessed using either the CD62L or TNF-α Duo Set ELISA kit according to manufacturer's instructions (R&D Systems, Inc.). The viability of cells treated with compounds was assessed by acridine orange / propidiom iodide (AO/PI Logosbio catalog F23001) staining using Luna-FL cell counter following the manufacture's instruction.^2 […] Supplemental Figure 1. CD62L shedding from unstimulated PBMC. A) Soluble CD62L in the supernatant of unstimulated PBMC was measured By ELISA (R&D systems, Inc) after 24 hour treatment in the presence of 10 μM of […]), aminopeptidase (AP) protease inhibitors, respectively, or their untreated controls. Statistics were calculated using unpaired parametric student t-test between individual treatment and DMSO control. […] B) Viability of PBMC treated with 10-500 μM of MMP inhibitors for 24hours. […] Untreated DMSO AEBSF 3,4-Dichloroisocouman Granzyme B Inhibitor II Granzyme B Inhibitor IV Aprotinin […] 3 4 CD62L shedding from unstimulated PBMC Soluble CD62L (ng/ml) Inhibitor Class […] GI254023X 10 GI254023X 100 […] GI254023X 1000 GW280264X 10 GW280264X 100 […] GW280264X 1000 Marimastat 10 Marimastat 100 Marimastat 250 […]

[6] = 10 μM compound, stimulated cells, ELISA

T3 sequence (P78536 215-824): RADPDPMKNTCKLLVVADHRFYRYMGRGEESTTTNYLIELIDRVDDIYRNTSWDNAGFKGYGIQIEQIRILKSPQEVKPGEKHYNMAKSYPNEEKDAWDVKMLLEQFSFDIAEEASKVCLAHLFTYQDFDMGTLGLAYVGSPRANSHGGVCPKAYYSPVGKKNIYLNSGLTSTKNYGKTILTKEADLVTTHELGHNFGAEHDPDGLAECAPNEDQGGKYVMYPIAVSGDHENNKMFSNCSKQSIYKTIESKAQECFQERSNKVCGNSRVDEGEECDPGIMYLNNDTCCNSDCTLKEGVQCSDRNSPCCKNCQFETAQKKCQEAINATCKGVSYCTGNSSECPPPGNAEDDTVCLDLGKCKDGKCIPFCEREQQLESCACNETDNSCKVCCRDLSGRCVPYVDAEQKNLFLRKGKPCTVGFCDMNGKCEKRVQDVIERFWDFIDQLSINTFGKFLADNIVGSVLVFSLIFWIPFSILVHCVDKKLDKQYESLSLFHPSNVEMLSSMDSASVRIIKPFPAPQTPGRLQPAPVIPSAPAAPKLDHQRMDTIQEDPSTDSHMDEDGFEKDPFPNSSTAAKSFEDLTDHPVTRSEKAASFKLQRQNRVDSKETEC

O=P([O-])([O-])C(Cl)(Cl)P(=O)(O)O.[Na+].[Na+] [DMDP, Dichloromethylenediphosphonic acid disodium salt]
inhibition of ADAM10 cleavage of ES003 (recombinant ADAM10 [1]): inhibited neither ADAM10 nor 17 enzymatic activities | effect on HIV protease cleavage of fluorogenic substrate [2]: none of the MMP inhibitors, including BB-94, prinomastat, GM6001 and DMDP, inhibited the activity of HIV protease | inhibition of ADAM17 cleavage of ES003 (recombinant ADAM17): inhibited neither ADAM10 nor 17 enzymatic activities | Shedding inhibition Stimulated (CD62L shedding [3]; [6]): − (0% inhibition) | inhibition of ADAM10 cleavage of CD62L substrate peptide (recombinant ADAM10 [4]): not | accumulation of infected CD4−/CD62L− T cells (loss of CD62L) (HIV-1BAL; HIV-1BAL infected cells): failed to prevent the loss of CD62L | effect on HIV-1BAL infection (intracellular p24) (HIV-1BAL; day 7 post infection, compounds at 100 μM, GI254023X at 250 μM): failed to inhibit HIV-1BAL infections

CNC(=O)[C@@H](NC(=O)[C@H](CC(C)C)[C@H](O)C(=O)NO)C(C)(C)C [Marimastat]
PBMC viability at day 6 post infection with HIV-1 BAL (PBMC; 50uM): significant loss in cell viability | PBMC viability at 24hr post treatment (PBMC): No significant decrease in the viability | inhibition at 10 µM (CD62L shedding [5]; Homo sapiens, PBMC, read-out: Shedding inhibition Non-stim.): > 50% | inhibition at 10 µM (CD62L shedding [3]; Homo sapiens, 10 μM compound, stimulated cells, ELISA): > 50%

Cc1c(O)cccc1C(=O)N[C@@H](CSc1ccccc1)[C@H](O)CN1C[C@H]2CCCC[C@H]2C[C@H]1C(=O)NC(C)(C)C [nelfinavir]
PBMC viability at day 3 post treatment (PBMC; 10uM): significant reduced cell viability | effect on HIV protease cleavage of fluorogenic substrate [2]: suppressed the substrate cleavage by HIV protease | effect on CD62L shedding from stimulated PBMC (CD62L shedding [3]; titration of HAART compounds, concentration range tested): did not inhibit CD62L shedding | p24 staining in HIV-1BAL infection of PBMC (HIV-1BAL; day 6, 0.5μM compounds): no significant staining

CC(C)(C)NC(=O)[C@@H]1C[C@@H]2CCCC[C@@H]2CN1C[C@@H](O)[C@H](Cc1ccccc1)NC(=O)[C@H](CC(N)=O)NC(=O)c1ccc2ccccc2n1 [saquinavir]
effect on HIV protease cleavage of fluorogenic substrate [2]: suppressed the substrate cleavage by HIV protease

GW280264X
PBMC viability at 24hr post treatment (PBMC): No significant decrease in the viability | Shedding inhibition Non-stim. (CD62L shedding [5]): +/− (<20) | Shedding inhibition Stimulated (CD62L shedding [3]; [6]): +/− (<20)
